According to patent US20230192660A1 (priority 2020, published 2023):

Molecular target: SARS-CoV-2 Mpro C145A mutant (Severe acute respiratory syndrome coronavirus 2, UniProt P0DTD1, C3408A)
Type: binding

In order of rising “ΔTm Mpro C145A” value:
1. CC1(C)[C@@H]2[C@@H](C(=O)N[C@@H](C[C@@H]3CCNC3=O)C(=O)C(N)=O)N(C(=O)CCc3ccccc3)C[C@@H]21 [ML102]  0 °C
2. CNC(=O)C(=O)[C@H](C[C@@H]1CCNC1=O)NC(=O)[C@@H]1[C@@H]2[C@H](CN1C(=O)CCc1ccccc1)C2(C)C [ML102m]  0 °C
3. CC1(C)[C@@H]2[C@@H](C(=O)NC(C[C@@H]3CCNC3=O)C(=O)C(N)=O)N(C(=O)CNc3c(F)cc(F)cc3F)C[C@@H]21 (stereo partly shown) [ML104]  0 °C
4. CNC(=O)C(=O)[C@H](C[C@@H]1CCNC1=O)NC(=O)[C@@H]1[C@@H]2[C@H](CN1C(=O)CNc1c(F)cc(F)cc1F)C2(C)C [ML104m]  0 °C
5. COc1cccc2[nH]c(C(=O)N3C[C@H]4[C@@H]([C@H]3C(=O)N[C@@H](C[C@@H]3CCNC3=O)C(=O)C(N)=O)C4(C)C)cc12 [ML105]  0 °C
6. CC(C)(C)[C@H](NC(=O)C12CC(C1)C2)C(=O)N1C[C@H]2[C@@H]([C@H]1C(=O)N[C@@H](C[C@@H]1CCNC1=O)C(=O)C(N)=O)C2(C)C [ML1002]  0.1 °C
7. CNC(=O)C(=O)[C@H](C[C@@H]1CCNC1=O)NC(=O)[C@@H]1[C@@H]2[C@H](CN1C(=O)[C@@H](NC(=O)C13CC(C1)C3)C(C)(C)C)C2(C)C [ML1002m]  0.1 °C
